Test results taken from patent US20250345391A1, “COMPOSITIONS AND METHODS FOR THE TREATMENT OF SEPSIS” (Children's Hospital Medical Center, priority 2022, published 2025).

Experiments:
[1] = test system: TNFα, IL-1β, IL-6, IL-10, KC, MIP-1α; experiment: Plasma levels of cytokines after CLP sepsis (multiplex array); type: in vivo, Male C57BL/6 mice; conditions: 6 h after CLP, vs vehicle
Source text: The investigation conformed to the National Institutes of Health Guide for the Care and Use of Laboratory Animals (Eighth Edition, 2011) and was approved by the Institutional Animal Care and Use Committee of the Cincinnati Children's Hospital Medical Center. Male C57BL/6 mice were obtained from Charles River Laboratories International, Inc. (Wilmington, MA). Mice were used at 3-5 months of age to mimic the equivalent for human ranges from 20-25 years (29). Male mice only were chosen for the experimentation to avoid interference from female hormonal fluctuations in sepsis responses during the estrous cycle. Mice were housed in pathogen-free conditions under a 10-h light/14-h dark cycle with free access to food and water. Mice were anesthetized with 2.0% isoflurane in 50% oxygen and polymicrobial sepsis was induced by cecal ligation and puncture (CLP) (30). After a midline laparotomy, the cecum was exteriorized, ligated and punctured twice with a 23-G needle. The cecum was then returned into the peritoneal cavity and the abdominal incision was closed. After the procedure, mice were randomly assigned to three treatment groups: a vehicle-treated group received distilled water (200 μl/mouse) intraperitoneally (i.p.); a 100 μg colivelin-treated group received the colivelin at 100 μg/kg i.p., and a 200 μg colivelin-treated group received the colivelin at 200 μg/kg i.p. at 1 h after CLP. The intraperitoneal injection was chosen to allow for a rapid uptake and bioavailability of the peptide. All groups of mice also received fluid resuscitation (35 ml/kg normal saline solution subcutaneously) immediately after, at 3 h and 12 h after the CLP procedure. To minimize pain at the surgical incision site, lidocaine hydrochloride (1%, 4 mg/kg total dose) was applied locally immediately after the procedure. […] Mice were then sacrificed at 0, 6 and 18 h after CLP. Blood, lungs, kidneys, liver, and thoracic aortas were collected for biochemical assays. Plasma levels of tumor necrosis factor-α (TNFα), interleukin (IL)-1β, IL-6, IL-10, keratinocytes-derived chemokine (KC), and macrophage inflammatory proteins (MIP-1α) were used as indices of the systemic inflammatory response and were evaluated by a commercially available multiplex array system (Milliplex, Millipore Corporation, Billerica, MA). Plasma levels of endoglin, intercellular adhesion molecule-1 (ICAM-1), P-selectin, proprotein convertase subtilisin/kexin type 9 (PCSK9), and angiopoietin-2 (Ang 2) were used as indices of endothelial injury and were evaluated by a commercially available multiplex array system (R&D Systems, Minneapolis, MN). Plasma levels of syndecan-1 were used as indices of glycocalyx damage and were evaluated by a mouse syndecan-1 sandwich-type enzyme-linked immunosorbent assay (ELISA) kit (Boster Biological Technology Co., California, US). Assays were performed using the protocols recommended by the manufacturer.

[2] = test system: Myeloperoxidase (MPO) activity in lung, kidneys and liver tissue; experiment: Myeloperoxidase activity (neutrophil infiltration) in organs after CLP sepsis; type: in vivo, Male C57BL/6 mice; conditions: 6 h after CLP; colivelin 100 or 200 μg/kg i.p. at 1 h after CLP; vs vehicle; dose-independent
Source text: The investigation conformed to the National Institutes of Health Guide for the Care and Use of Laboratory Animals (Eighth Edition, 2011) and was approved by the Institutional Animal Care and Use Committee of the Cincinnati Children's Hospital Medical Center. Male C57BL/6 mice were obtained from Charles River Laboratories International, Inc. (Wilmington, MA). Mice were used at 3-5 months of age to mimic the equivalent for human ranges from 20-25 years (29). Male mice only were chosen for the experimentation to avoid interference from female hormonal fluctuations in sepsis responses during the estrous cycle. Mice were housed in pathogen-free conditions under a 10-h light/14-h dark cycle with free access to food and water. Mice were anesthetized with 2.0% isoflurane in 50% oxygen and polymicrobial sepsis was induced by cecal ligation and puncture (CLP) (30). After a midline laparotomy, the cecum was exteriorized, ligated and punctured twice with a 23-G needle. The cecum was then returned into the peritoneal cavity and the abdominal incision was closed. After the procedure, mice were randomly assigned to three treatment groups: a vehicle-treated group received distilled water (200 μl/mouse) intraperitoneally (i.p.); a 100 μg colivelin-treated group received the colivelin at 100 μg/kg i.p., and a 200 μg colivelin-treated group received the colivelin at 200 μg/kg i.p. at 1 h after CLP. The intraperitoneal injection was chosen to allow for a rapid uptake and bioavailability of the peptide. All groups of mice also received fluid resuscitation (35 ml/kg normal saline solution subcutaneously) immediately after, at 3 h and 12 h after the CLP procedure. […] Myeloperoxidase (MPO) activity was measured as an indicator of neutrophil infiltration in lung, kidneys and liver tissue. […] The rate of change in absorbance was measured by spectrophotometry at 650 nm. MPO activity was defined as the quantity of enzyme degrading 1 μmol of hydrogen peroxide/min at 37° C. and expressed in units per 100 mg weight of tissue.

[3] = colivelin 100 or 200 μg/kg i.p. at 1 h after CLP, dose-independent
[4] = colivelin 100 or 200 μg/kg i.p., trend towards reduction

Colivelin (SALLRSIPAPAGASRLLLLTGEIDLP)
significantly decreased: Plasma levels of IL-10 [1, 3] | Plasma levels of MIP-1α [1, 3] | Plasma levels of TNF-α [1, 3] | MPO activity in kidneys [2] | MPO activity in liver [2] | MPO activity in lungs [2]
significantly reduced: Plasma levels of KC ([1]; colivelin at 200 μg/kg i.p. at 1 h after CLP)
not statistically different: Plasma levels of IL-1β [1, 4] | Plasma levels of IL-6 [1, 4]
